Data on twelve compounds can be found in article PMC9025851, “Polyphenolic Compounds from Lespedeza bicolor Protect Neuronal Cells from Oxidative Stress” (Antioxidants, 2022).

One series has as its system neuronal HT22 cells. The arrangement: method as in PMID 33397834. The following applies: cited from earlier work; for Neuroprotective effect against glutamate-induced neurotoxicity: HT22 cells.
Series [1] in a line: DPPH radical-scavenging effect. The following applies: 30 min; DPPH• 10^−4 M in MeOH; mean ± SEM, n = 3; read-out: DPPH-Scavenging Effect SC50. The procedure: The 2,2-diphenyl-1-picrylhydrazyl (DPPH^•) radical-scavenging effect of polyphenolic compounds 7–11 was determined as described in [24]. Polyphenolic compounds 7, 8, 9, 10, and 11 were added to DPPH^• solution in MeOH (10^−4 M) at concentrations from 6 to 34 µM. The reacting mixture was kept in the dark for 30 min at room temperature. Then, we measured the absorbance at 517 nm using a Shimadzu UV 1240 spectrophotometer (Shimadzu, Kyoto, Japan). Equation (1) was used to calculate the DPPH^• radical-scavenging effect (%):(1) DPPH^• scavenging effect,%=A0−Ax/A0 where A0 is the absorbance of DPPH^• solution of a blank sample (without polyphenolic compounds); AX is the absorbance of DPPH^• solution in the presence of different concentrations of polyphenolic compounds.
Quercetin was used as a reference compound. All experiments were performed in triplicate. We calculated the half-maximal scavenging concentration (SC50) for polyphenolic compounds by plotting the DPPH^• scavenging effect (%) against the concentrations of polyphenolic compounds. SC50 values are given as the mean value ± SEM.
On the technique in general: DPPH is a stable violet radical that fades when it is reduced.

Series [2] in a line: Ferric reducing antioxidant power (FRAP) assay. The conditions noted are these: 4 min, absorbance 595 nm; mean ± SEM, n = 3. Here is the method:
We performed the FRAP assay as described in [29]. We prepared the FRAP reagent by mixing 2.5 mL of TPTZ (2,4,6-tris(2-pyridyl)-s-triazine) solution (10 mM) in 40 mM HCl and 25 mL of FeCl3 solution (20 mM) in acetate buffer solution (300 mM, pH 3.6). Polyphenolics 7–11 were added to 3 mL of FRAP reagent at concentrations from 6 to 34 µM. The mixture was kept in the dark at room temperature for 4 min. Then, we measured the absorbance at 595 nm using a Shimadzu UV 1240 spectrophotometer. Equation (2) was used to calculate the FRAP values for polyphenolic compounds 7–11:(2) FRAP=CFe/Cx where CFe is the concentration of Fe^2+ (µM) formed in the reaction; CX is the concentration of polyphenolic compounds in the reacting mixture.
The concentration of Fe^2+ (µM) formed in the reaction was determined using the calibration curve obtained for different concentrations of FeSO4·7H2O.

On the set-up of series [3]: method as in PMID 31004693. The conditions noted are these: 30 min; mean ± SEM, n = 3; previously published; read-out: DPPH-Scavenging Effect SC50; cited from earlier work.
On the set-up of series [4]: method as in PMID 31004693. The conditions noted are these: mean ± SEM, n = 3; previously published; cited from earlier work.
Series [5] has as its system PQ-treated Neuro-2a cells. Put plainly: PQ-induced neurotoxicity, cell viability (MTT). The following applies: PQ 1 mM; for Effect on percentage of living cells after treatment with PQ: compounds 0.01–10 μM, 1 h pre-treatment, MTT after 24 h. In kind it is cell-based, murine. Here is the method: After 24 h of adhesion, Neuro-2a cells (1 × 10^4 cells/well) were treated with polyphenolic compounds at concentrations of 0.01–10 μM for 1 h. Subsequently, 1 mM of PQ, 10 μM rotenone or 80 μM of 6-OHDA (Sigma-Aldrich, St. Louis, MO, USA) were added. We used MTT assay to determine the percentage of living cells (cell viability) after 24 h of incubation. Cells incubated without inductors or with inductors were used as positive and negative control, respectively. The results are presented as percentages of the positive control value.

A short description of the next series: Cytotoxicity, MTT assay. The following applies: mouse, Neuro-2a neuroblastoma cells, read-out: Cytotoxic activity EC50. Type of series: cell-based, murine. Here is the method:
The murine neuroblastoma cell line Neuro-2a (CCL-131) was purchased from American Type Culture Collection (ATCC®) (Manassas, VA, USA). Cells were cultured in Dulbecco’s Modified Eagle Medium (Biolot, St. Petersburg, Russia). The medium contained 10% fetal bovine serum (Biolot, St. Petersburg, Russia) and 1% penicillin/streptomycin (Biolot, St. Petersburg, Russia). Cells were incubated at 37 °C in a humidified atmosphere containing 5% (v/v) CO2.
Stock solutions of polyphenolic compounds were prepared in DMSO at a concentration of 10 mM. […]
We incubated Neuro-2a cells (1 × 10^4 cells/well) at 37 °C in a CO2 incubator for 24 h until they formed an adherent monolayer. Then, 20 μL of the tested solution was loaded onto the cells and incubated for 24 h. After incubation, the medium containing the polyphenolic test compounds was replaced by 100 μL of fresh medium. Then, we added 10 μL of MTT (3-(4,5-dimethylthiazol-2-yl)-2,5-diphenyltetrazolium bromide) (Sigma-Aldrich, St. Louis, MO, USA) stock solution (5 mg/mL) to each well and incubated the microplate for 4 h. Then, 100 μL of SDS-HCl solution (1 g SDS/10 mL dH2O/17 μL 6 M HCl) was added to each well, followed by incubation for 18 h. We measured the absorbance of the converted dye formazan on a Multiskan FC microplate photometer (Thermo Scientific, Waltham, MA, USA) at a wavelength of 570 nm. We performed all experiments in triplicate and expressed the cytotoxic activity as percent of living cells.
On the technique in general: Tetrazolium assays rely on reduction of a dye to a coloured formazan, in cell work by metabolically active cells.

Like-named read-outs stand apart in the source and are kept apart here.

Take 2-geranyl-1-methoxylespeflorin G11: the “Neuroprotective effect against glutamate-induced neurotoxicity” value (shortened to “Neuroprotective effect”) with neuronal HT22 cells is recorded as “significant neuroprotective effects”. In addition, the “Apoptosis in HT22 cells” value with neuronal HT22 cells (by inhibiting intracellular ROS generation and mitochondrial dysfunction) was “attenuate”.
With 2-geranylbicolosin A, the “Neuroprotective effect” value in the series with neuronal HT22 cells is recorded as “significant neuroprotective effects”.
`COc1c(CC=C(C)C)c(O)cc2c1C1Oc3c(ccc(O)c3CC=C(C)C)C1CO2` (centres unmarked) [1-methoxyerythrabyssin II]: the “Neuroprotective effect” value in the series on neuronal HT22 cells is “significant neuroprotective effects”.
With `COc1cc(O)cc2c1C1Oc3c(ccc(O)c3CC=C(C)C)C1CO2` (centres unmarked) [1-methoxylespeflorin G11], the “Neuroprotective effect” value in the series with neuronal HT22 cells is “significant neuroprotective effects”.
With `COc1cc2c(cc1O)OC1c3c(OC)cc(O)c(C/C=C(\C)CCC=C(C)C)c3OCC21` (centres unmarked) [8-methoxybicolosin C], the “Neuroprotective effect” value in the series on neuronal HT22 cells is “significant neuroprotective effects”.
Consider `O=C1O[C@H]([C@@H](O)CO)C(O)=C1O` [Ascorbic acid, reference compound], for which the EC50 in series [1] is 30.5 ± 2.1 µM. Further, in series [2], the FRAP is reported as 3.43 ± 0.33 mol (Fe^2+)/mol (polyphenolic compound X).
For `CC(C)=CCC/C(C)=C/Cc1c(O)c(O)cc2c1O[C@H]1c3ccc(O)cc3OC[C@@H]21` [Compound 1, (6aR,11aR)-6a,11a-dihydrolespedezol A2], the EC50 in series [3] is 24.3 ± 3.7 µM. The FRAP in series [4] was 1.78 ± 0.16 mol (Fe^2+)/mol (polyphenolic compound X). Also, in series [5], the “Effect on percentage of living cells after treatment with PQ” value is “did not exhibit any effect”. Moreover, the EC50 at 24 h in “Cytotoxicity, MTT assay” stood at 72 µM.
Regarding `CC(C)=CCC/C(C)=C/Cc1c(O)c(O)cc2c1oc1c3ccc(O)cc3oc(=O)c21` [Compound 7, lespedezol A6], the EC50 in series [1] is 25.7 ± 3.4 µM. Besides, the FRAP in series [2] is reported as 1.83 ± 0.16 mol (Fe^2+)/mol (polyphenolic compound X). Also, the EC50 at 24 h in the series “Cytotoxicity, MTT assay” is above 100 µM.
Turning to `CC(C)=CCC/C(C)=C/Cc1c(O)c(C(=O)c2c(-c3ccc(O)cc3O)oc3c(C/C=C(\C)CCC=C(C)C)c(O)c(O)cc23)cc2c1OC1c3cc(CC=C(C)C)c(O)cc3OCC21` (centres unmarked) [Compound 8, lespebicolin B], the “Effect on percentage of living cells after treatment with PQ” value in series [5] is “significantly increased”. Besides, the “Increase in percentage of living cells after treatment with PQ” value in series [5] (compound 1 and 10 μM, MTT) was 8–10%. For the same compound, in series [1], the EC50 worked out at 26.7 ± 3.8 µM. Further, in series [2], the FRAP was 1.95 ± 0.19 mol (Fe^2+)/mol (polyphenolic compound X). In addition, the EC50 at 24 h in “Cytotoxicity, MTT assay” was above 100 µM.
`CC(C)=CCC/C(C)=C/Cc1c(O)c(O)cc(C(=O)C(=O)c2cc(CC=C(C)C)c(O)cc2O)c1O` [Compound 11, 5′-isoprenylbicoloketone]: the EC50 in series [1] was found to be 19.4 ± 2.2 µM. Also, in series [2], the FRAP is reported as 1.45 ± 0.08 mol (Fe^2+)/mol (polyphenolic compound X). The EC50 at 24 h in the series “Cytotoxicity, MTT assay” came to 87 µM.
`O=c1c(O)c(-c2ccc(O)c(O)c2)oc2cc(O)cc(O)c12` [Quercetin, reference compound]: the EC50 in series [1] turned out to be 8.9 ± 0.2 µM. The FRAP in series [2] is listed as 5.11 ± 0.31 mol (Fe^2+)/mol (polyphenolic compound X).
In the case of `COc1c(CC=C(C)C)c(O)cc2c1[C@@H]1Oc3c(cc(C)c(O)c3CC=C(C)C)[C@@H]1CO2` [bicolosin A], the “Neuroprotective effect” value in the series on neuronal HT22 cells is reported as “significant neuroprotective effects”.
